Data as given in patent publication US10570184B2, “GLP-1/glucagon receptor co-agonists for medical use” (Novo Nordisk A/S, priority 2014, dated 2020).
Starred links: 1 amine or outer side, 2 acyl side, 3 side chain; linkers in the order of their positions; H or OH if unused. Non-standard residues stand in square brackets, D forms with d. Residues, ends and D or L forms follow the SMILES beside them. Groups on a side chain read outwards from the residue. *: point of attachment. C18 diacid = O=C(O)CCCCCCCCCCCCCCCCC(=O)*; γGlu = O=C(O)[C@H](CCC(=O)[*:2])N[*:1]; AEEA = NCCOCCOCC(=O)O; Aib = CC(C)(N)C(=O)O

What was measured:
human GLP-1 receptor = target: T1, human GLP-1 receptor (Homo sapiens, UniProt P43220); test: Assay (II)(a) GLP-1 receptor binding, 125I-GLP-1 displacement SPA on BHK membranes; settings: without presence of serum albumin; read-out: GLP-1R IC50 (nM) [Assay (II)(a)]
T1 construct: expressed in transfected cells; host or cells: membranes of BHK cells (parent BHKTS13), clone FCW467-12A
T1 sequence (P43220 24-463): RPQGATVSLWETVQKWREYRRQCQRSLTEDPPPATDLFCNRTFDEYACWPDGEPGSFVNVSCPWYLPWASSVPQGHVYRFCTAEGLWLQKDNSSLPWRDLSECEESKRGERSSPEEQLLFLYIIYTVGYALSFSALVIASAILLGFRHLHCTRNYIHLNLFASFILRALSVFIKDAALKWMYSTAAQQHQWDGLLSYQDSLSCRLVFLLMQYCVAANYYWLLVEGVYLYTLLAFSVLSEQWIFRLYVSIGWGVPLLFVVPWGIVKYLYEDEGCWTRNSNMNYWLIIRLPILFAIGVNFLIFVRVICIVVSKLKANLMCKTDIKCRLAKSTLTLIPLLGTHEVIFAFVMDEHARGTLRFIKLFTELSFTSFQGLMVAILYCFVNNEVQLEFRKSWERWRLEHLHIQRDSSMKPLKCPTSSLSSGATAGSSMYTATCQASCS
Method in brief: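 Membranes from BHK cells (clone FCW467-12A) stably expressing human GLP-1R were incubated with serially diluted compounds (8×10EE-13 to 8×10EE-7 M before addition) and [125I]-GLP-1-(7-36)NH2 with WGA SPA beads, 2 h at 30° C, pH 7.4. IC50 taken from displacement by non-linear regression. Run at ≤0.001% or 2.0% final serum albumin.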

[1] = Assay (III) ThT fibrillation assay for physical stability; assay type: physicochemical; settings: 250 μM in 10 mM HEPES buffer, 37° C., shaking 960 rpm
Description: The purpose of this assay is to assess the physical stability of the glucagon derivatives of the invention in aqueous solutions. Low physical stability of a peptide may lead to amyloid fibril formation, which is observed as well-ordered, thread-like macromolecular structures in the sample, which eventually may lead to gel formation. This has traditionally been measured by visual inspection of the sample. However, that kind of measurement is very subjective and depending on the observer. Therefore, the application of a small molecule indicator probe is much more advantageous. Thioflavin T (ThT) is such a probe and has a distinct fluorescence signature when binding to fibrils [Naiki et al. (1989) Anal. Biochem. 177, 244-249; LeVine (1999) Methods. Enzymol. 309, 274-284]. […] The constant t0 is the time needed to reach 50% of maximum fluorescence. The two important parameters describing fibril formation are the lag-time calculated by t0−2τ and the apparent rate constant kapp 1/τ. Samples were prepared freshly before each assay. Each sample composition is described in the legends. The pH of the sample was adjusted to the desired value using appropriate amounts of concentrated NaOH and HCl. Thioflavin T was added to the samples from a stock solution in H2O to a final concentration of 1 μM. Sample aliquots of 200 μl (250 μM of the glucagon derivative in 10 mM HEPES buffer, pH 7.5) were placed in a 96 well microtiter plate (Packard OptiPlate™-96, white polystyrene). Usually, four or eight replica of each sample (corresponding to one test condition) were placed in one column of wells. The plate was sealed with Scotch Pad (Qiagen). Incubation at given temperature, shaking and measurement of the ThT fluorescence emission were done in a Fluoroskan Ascent FL fluorescence platereader (Thermo Labsystems). The temperature was adjusted to 37° C. The plate was incubated with orbital shaking adjusted to 960 rpm with an amplitude of 1 mm. Fluorescence measurement was done using excitation through a 444 nm filter and measurement of emission through a 485 nm filter. Each run was initiated by incubating the plate at the assay temperature for 10 min. The plate was measured every 20 minutes for a desired period of time. Between each measurement, the plate was shaken and heated as described. After completion of the ThT assay the four or eight replica of each sample was pooled and centrifuged at 20000 rpm for 30 minutes at 18° C. The supernatant was filtered through a 0.22 μm filter and an aliquot was transferred to a HPLC vial. The concentration of peptide in the initial sample and in the filtered supernatant was determined by reverse phase HPLC using an appropriate standard as reference. The percentage fraction the concentration of the filtered sample constituted of the initial sample concentration was reported as the recovery. The measurement points were saved in Microsoft Excel format for further processing and curve drawing and fitting was performed using GraphPad Prism. The background emission from ThT in the absence of fibrils was negligible. The data points are typically a mean of four or eight samples and shown with standard deviation error bars. Only data obtained in the same experiment (i.e. samples on the same plate) are presented in the same graph ensuring a relative measure of fibrillation between experiments. The data set may be fitted to Eq. (1).

SMILES | IC50 (human GLP-1 receptor) | ThT Assay Lag time (h) [Assay (III), pH 7.5] [1]
CC[C@H](C)[C@H](NC(=O)[C@H](CC(C)C)NC(=O)[C@H](Cc1c[nH]c2ccccc12)NC(=O)[C@H](CCC(N)=O)NC(=O)[C@@H](NC(=O)[C@H](Cc1ccccc1)NC(=O)[C@H](CCC(=O)O)NC(=O)[C@H](CCCNC(=N)N)NC(=O)[C@H](C)NC(=O)[C@H](CCCNC(=N)N)NC(=O)[C@H](CCCNC(=N)N)NC(=O)[C@H](CC(C)C)NC(=O)[C@H](CC(=O)O)NC(=O)[C@H](CC(C)C)NC(=O)[C@H](Cc1ccc(O)cc1)NC(=O)[C@H](CCCCN)NC(=O)[C@H](CO)NC(=O)[C@H](CC(C)C)NC(=O)[C@H](CC(=O)O)NC(=O)[C@H](CO)NC(=O)[C@@H](NC(=O)[C@H](Cc1ccccc1)NC(=O)[C@@H](NC(=O)CNC(=O)[C@H](CCC(N)=O)NC(=O)C(C)(C)NC(=O)[C@@H](N)Cc1c[nH]cn1)[C@@H](C)O)[C@@H](C)O)C(C)C)C(=O)N[C@@H](CC(N)=O)C(=O)N[C@@H](CCCCNC(=O)CC[C@H](NC(=O)CC[C@H](NC(=O)COCCOCCNC(=O)COCCOCCNC(=O)CC[C@H](NC(=O)CCCCCCCCCCCCCCCCC(=O)O)C(=O)O)C(=O)O)C(=O)O)C(N)=O [Chem. 22, N^ε29-[(4S)-4-carboxy-4-[[(4S)-4-carboxy-4-[[2-[2-[2-[[2-[2-[2-[[(4S)-4-carboxy-4-(17-carboxyheptadecanoylamino)butanoyl]amino]ethoxy]ethoxy]acetyl]amino]ethoxy]ethoxy]acetyl]amino]butanoyl]amino]butanoyl]-[Aib2,Leu10,Leu16,Arg20,Glu21,Ile27,Lys29]-Glucagon amide] (H-H[Aib]QGTFTSDLSKYLDLRRAREFVQWLINK([γGlu-γGlu-AEEA-AEEA-γGlu-C18 diacid])-NH2; N-terminus assumed) | 0.3 nM | 45.0 h
CC[C@H](C)[C@H](NC(=O)[C@H](CC(C)C)NC(=O)[C@H](Cc1c[nH]c2ccccc12)NC(=O)[C@H](CCC(N)=O)NC(=O)[C@@H](NC(=O)[C@H](Cc1ccccc1)NC(=O)[C@H](CC(=O)O)NC(=O)[C@H](CCCNC(=N)N)NC(=O)[C@H](C)NC(=O)[C@H](CCCNC(=N)N)NC(=O)[C@H](CCCNC(=N)N)NC(=O)[C@H](CC(C)C)NC(=O)[C@H](CC(=O)O)NC(=O)[C@H](CC(C)C)NC(=O)[C@H](Cc1ccc(O)cc1)NC(=O)[C@H](CCCCN)NC(=O)[C@H](CO)NC(=O)[C@H](CC(C)C)NC(=O)[C@H](CC(=O)O)NC(=O)[C@H](CO)NC(=O)[C@@H](NC(=O)[C@H](Cc1ccccc1)NC(=O)[C@@H](NC(=O)CNC(=O)[C@H](CCC(N)=O)NC(=O)C(C)(C)NC(=O)[C@@H](N)Cc1c[nH]cn1)[C@@H](C)O)[C@@H](C)O)C(C)C)C(=O)N[C@@H](CC(N)=O)C(=O)N[C@@H](CCCCNC(=O)CC[C@H](NC(=O)CC[C@H](NC(=O)COCCOCCNC(=O)COCCOCCNC(=O)CC[C@H](NC(=O)CCCCCCCCCCCCCCCCC(=O)O)C(=O)O)C(=O)O)C(=O)O)C(N)=O [Chem. 23, N^ε29-[(4S)-4-carboxy-4-[[(4S)-4-carboxy-4-[[2-[2-[2-[[2-[2-[2-[[(4S)-4-carboxy-4-(17-carboxyheptadecanoylamino)butanoyl]amino]ethoxy]ethoxy]acetyl]amino]ethoxy]ethoxy]acetyl]amino]butanoyl]amino]butanoyl]-[Aib2,Leu10,Leu16,Arg20,Ile27,Lys29]-Glucagon amide] (H-H[Aib]QGTFTSDLSKYLDLRRARDFVQWLINK([γGlu-γGlu-AEEA-AEEA-γGlu-C18 diacid])-NH2; N-terminus assumed) | 0.3 nM | 45.0 h
CC[C@H](C)[C@H](NC(=O)[C@H](CC(C)C)NC(=O)[C@H](Cc1c[nH]c2ccccc12)NC(=O)[C@H](CCC(N)=O)NC(=O)[C@@H](NC(=O)[C@H](Cc1ccccc1)NC(=O)[C@H](CCC(=O)O)NC(=O)[C@H](CCCNC(=N)N)NC(=O)[C@H](C)NC(=O)[C@H](CCCNC(=N)N)NC(=O)[C@H](CCCNC(=N)N)NC(=O)[C@H](CC(C)C)NC(=O)[C@H](CC(=O)O)NC(=O)[C@H](CC(C)C)NC(=O)[C@H](Cc1ccc(O)cc1)NC(=O)[C@H](CCCCN)NC(=O)[C@H](CO)NC(=O)[C@H](CC(C)C)NC(=O)[C@H](CC(=O)O)NC(=O)[C@H](CO)NC(=O)[C@@H](NC(=O)[C@H](Cc1ccccc1)NC(=O)[C@@H](NC(=O)CNC(=O)[C@H](CCC(N)=O)NC(=O)C(C)(C)NC(=O)[C@@H](N)Cc1c[nH]cn1)[C@@H](C)O)[C@@H](C)O)C(C)C)C(=O)N[C@@H](CO)C(=O)N[C@@H](CCCCNC(=O)CC[C@H](NC(=O)CC[C@H](NC(=O)COCCOCCNC(=O)COCCOCCNC(=O)CC[C@H](NC(=O)CCCCCCCCCCCCCCCCC(=O)O)C(=O)O)C(=O)O)C(=O)O)C(N)=O [Chem. 30, N^ε29-[(4S)-4-carboxy-4-[[(4S)-4-carboxy-4-[[2-[2-[2-[[2-[2-[2-[[(4S)-4-carboxy-4-(17-carboxyheptadecanoylamino)butanoyl]amino]ethoxy]ethoxy]acetyl]amino]ethoxy]ethoxy]acetyl]amino]butanoyl]amino]butanoyl]-[Aib2,Leu10,Leu16,Arg20,Glu21,Ile27,Ser28,Lys29]-Glucagon amide] (H-H[Aib]QGTFTSDLSKYLDLRRAREFVQWLISK([γGlu-γGlu-AEEA-AEEA-γGlu-C18 diacid])-NH2; N-terminus assumed) | 0.9 nM | 45.0 h
CC[C@H](C)[C@H](NC(=O)[C@H](CC(C)C)NC(=O)[C@H](Cc1c[nH]c2ccccc12)NC(=O)[C@H](C)NC(=O)[C@@H](NC(=O)[C@H](Cc1ccccc1)NC(=O)[C@H](CC(=O)O)NC(=O)[C@H](CCC(N)=O)NC(=O)[C@H](C)NC(=O)[C@H](CCCNC(=N)N)NC(=O)[C@H](CCCNC(=N)N)NC(=O)[C@H](CO)NC(=O)[C@H](CCC(=O)O)NC(=O)[C@H](CC(C)C)NC(=O)[C@H](Cc1ccc(O)cc1)NC(=O)[C@H](CCCCN)NC(=O)[C@H](CO)NC(=O)[C@H](Cc1ccc(O)cc1)NC(=O)[C@H](CC(=O)O)NC(=O)[C@H](CO)NC(=O)[C@@H](NC(=O)[C@H](Cc1ccccc1)NC(=O)[C@@H](NC(=O)CNC(=O)[C@H](CCC(N)=O)NC(=O)C(C)(C)NC(=O)[C@@H](N)Cc1c[nH]cn1)[C@@H](C)O)[C@@H](C)O)C(C)C)C(=O)N[C@@H](CO)C(=O)N[C@@H](CCCCNC(=O)CC[C@H](NC(=O)CC[C@H](NC(=O)COCCOCCNC(=O)COCCOCCNC(=O)CC[C@H](NC(=O)CCCCCCCCCCCCCCCCC(=O)O)C(=O)O)C(=O)O)C(=O)O)C(N)=O [Chem. 35, N^ε29-[(4S)-4-carboxy-4-[[(4S)-4-carboxy-4-[[2-[2-[2-[[2-[2-[2-[[(4S)-4-carboxy-4-(17-carboxyheptadecanoylamino)butanoyl]amino]ethoxy]ethoxy]acetyl]amino]ethoxy]ethoxy]acetyl]amino]butanoyl]amino]butanoyl]-[Aib2,Glu15,Ala24,Ile27,Ser28,Lys29]-Glucagon amide] (H-H[Aib]QGTFTSDYSKYLESRRAQDFVAWLISK([γGlu-γGlu-AEEA-AEEA-γGlu-C18 diacid])-NH2) | 2.2 nM | 45.0 h
